pEC50: −log10 of the molar value. Values joined by “and” are separate entries in the source; they are usually repeats but may differ in a detail not shown here. Identical values can stand only once.
Legend:
Type in all cases: cell-based
KRAS^G13C [1] = biological target: T1, KRAS^G13C (Homo sapiens, UniProt P01116+P62937, G13C); assay: Cellular RAS–CYPA binding (tri-complex formation), nano-BRET in U2OS cells; design: expressed in transfected cells; host or cells: U2OS; conditions: (95% CI)
Text: (§1) KRAS4B, or other small GTPases, containing the indicated mutations were cloned in pNLF-N or pHTN plasmids for expression with an N-terminal nanoluciferase or HaloTag fusion, respectively. […] The following day, the cells were collected by Trypsin and reseeded in a white tissue culture-treated 96-well plate in OptiMem phenol red-free medium (Gibco) containing 4% FBS and a 1:1,000 dilution of NanoBRET 618 HaloTag ligand (Promega). For endpoint concentration response curves, vivazine nanoluciferase substrate was added to 1× concentration in OptiMem phenol red-free medium with 4% FBS. Varying concentrations of inhibitor were added and incubated for 1 or 4 h before the nano-BRET signal was measured on a Perkin Elmer Envision plate reader. For kinetic assays, endurazine nanoluciferase substrate was used in place of vivazine, and the plate was placed in a Cytation5 multi-mode reader pre-equilibrated to 37 °C and 5% CO2.

KRAS^G12C [2] = biological target: T2, KRAS^G12C (Homo sapiens, UniProt P01116+P62937, G12C); assay: as above; design: expressed in transfected cells; host or cells: U2OS; conditions: (95% CI)
Text: as §1

KRAS WT [3] = biological target: T3, KRAS WT (Homo sapiens, UniProt P01116+P62937); assay: as above; design: expressed in transfected cells; host or cells: U2OS; conditions: (95% CI)
Text: as §1

KRAS^G12D [4] = biological target: T4, KRAS^G12D (Homo sapiens, UniProt P01116+P62937, G12D); assay: as above; design: expressed in transfected cells; host or cells: U2OS; conditions: (95% CI)
Text: as §1

KRAS^G12R [5] = biological target: T5, KRAS^G12R (Homo sapiens, UniProt P01116+P62937, G12R); assay: as above; design: expressed in transfected cells; host or cells: U2OS; conditions: (95% CI)
Text: as §1

KRAS^G13C [6] = biological target: T1, KRAS^G13C; assay: Cellular RAS–RAF (CRAF RBD) disruption, nano-BRET in U2OS cells; design: expressed in transfected cells; host or cells: U2OS; conditions: (95% CI)
Text: as §1

KRAS^G12C [7] = biological target: T2, KRAS^G12C; assay: as above; design: expressed in transfected cells; host or cells: U2OS; conditions: (95% CI)
Text: as §1

KRAS WT [8] = biological target: T3, KRAS WT; assay: as above; design: expressed in transfected cells; host or cells: U2OS; conditions: (95% CI)
Text: as §1

KRAS^G12D [9] = biological target: T4, KRAS^G12D; assay: as above; design: expressed in transfected cells; host or cells: U2OS; conditions: (95% CI)
Text: as §1

KRAS^G12R [10] = biological target: T5, KRAS^G12R; assay: as above; design: expressed in transfected cells; host or cells: U2OS; conditions: (95% CI)
Text: as §1

[11] = system: Capan-1, SW620, AsPC-1, HPAC, NCI-H358, PSN1, HUPT3, HCT 116, Hs 766T, SK-MEL-30, KU1919, NCI-H1975, A375; assay: Proliferation (CTG) in human cancer cell lines
Method: Data points show biological duplicates normalized to vehicle control. […] Data points show biological duplicates normalized to vehicle control from 1 of 2–26 independent experiments. Source Data
Alternatively, cells were seeded in round-bottom ultra-low attachment 96-well plates, centrifuged at 1,000 rpm for 10 min to pellet the cells, and incubated overnight or up to 72 h to allow for 3D spheroid formation. […] Cell viability was determined by CellTiter-Glo 2.0 reagent (2D CTG) (Promega, G9243) or 3D CellTiter-Glo reagent (3D CTG) (Promega, G9683) according to the manufacturer’s protocols. Luminescence was detected using a SpectraMax M5 Plate Reader (Molecular Devices) of Perkin Elmer Enspire. Luminescence signal was normalized to vehicle-treated wells (normalized signal (%) = (luminescence (treated)/mean luminescence (vehicle)) × 100%). […] Data were plotted as log [inhibitor (M)], and a four-parameter sigmoidal concentration response model was fitted to the data to calculate EC50. […] Pa16C MEK1 mutant cells were evaluated by live-cell counting using Calcein AM and a SpectraMax i3X multi-mode detection platform (Molecular Devices). Growth percentages were calculated by normalizing the treated cell counts to their respective untreated cell counts.

CCn1c(-c2cc(N3CCN(C4CC4)CC3)cnc2[C@H](C)OC)c2c3cc(ccc31)-c1csc(n1)C[C@H](NC(=O)[C@H]1[C@@H]3COC[C@@H]31)C(=O)N1CCC[C@H](N1)C(=O)OCC(C)(C)C2 [RMC-7977]
pEC50 (KRAS^G13C [1]): 8.43 | pEC50 (KRAS^G12C [2]): 8.90 | pEC50 (KRAS WT [3]): 8.04 | pEC50 (KRAS^G12D [4]): 8.57 | pEC50 (KRAS^G12R [5]): 8.54 | pEC50 (KRAS^G13C [6]): 7.76 | pEC50 (KRAS^G12C [7]): 8.30 | pEC50 (KRAS WT [8]): 7.46 | pEC50 (KRAS^G12D [9]): 8.02 | pEC50 (KRAS^G12R [10]): 7.67 | Cell proliferation (CellTiter-Glo) ([11]; ASPC1, RMC-7977 1.52 nM): 68.8907 and 77.7752 | Cell proliferation (CellTiter-Glo) ([11]; ASPC1, RMC-7977 4.57 nM): 54.6049 and 56.084 | Cell proliferation (CellTiter-Glo) ([11]; ASPC1, RMC-7977 13.72 nM): 31.4521 and 36.2763 | Cell proliferation (CellTiter-Glo) ([11]; ASPC1, RMC-7977 41.15 nM): 19.3277 and 20.3014 | Cell proliferation (CellTiter-Glo) ([11]; ASPC1, RMC-7977 123.46 nM): 12.8203 and 13.4559 | Cell proliferation (CellTiter-Glo) ([11]; ASPC1, RMC-7977 370.39 nM): 9.7785 and 11.4734 | Cell proliferation (CellTiter-Glo) ([11]; ASPC1, RMC-7977 1111.14 nM): 8.521 and 9.0438 | Cell proliferation (CellTiter-Glo) ([11]; ASPC1, RMC-7977 3333.41 nM): 6.811 and 10.0312 | Cell proliferation (CellTiter-Glo) ([11]; ASPC1, RMC-7977 10000.00 nM): 5.308 and 5.788 | Cell proliferation (CellTiter-Glo) ([11]; CAPAN1, RMC-7977 1.52 nM): 59.9636 and 63.7997 | Cell proliferation (CellTiter-Glo) ([11]; CAPAN1, RMC-7977 4.57 nM): 35.7372 and 42.3141 | Cell proliferation (CellTiter-Glo) ([11]; CAPAN1, RMC-7977 13.72 nM): 18.382 and 18.5053 | Cell proliferation (CellTiter-Glo) ([11]; CAPAN1, RMC-7977 41.15 nM): 11.8827 and 13.681 | Cell proliferation (CellTiter-Glo) ([11]; CAPAN1, RMC-7977 123.46 nM): 8.811 and 11.6796 | Cell proliferation (CellTiter-Glo) ([11]; CAPAN1, RMC-7977 370.39 nM): 5.4975 and 10.0571 | Cell proliferation (CellTiter-Glo) ([11]; CAPAN1, RMC-7977 1111.14 nM): 6.166 and 6.972 | Cell proliferation (CellTiter-Glo) ([11]; CAPAN1, RMC-7977 3333.41 nM): 4.455 and 5.8786 | Concentration-response, normalized signal (replicate wells) ([11]; HCT116, RMC-7977 4.00 nM): 82.5863 and 97.7262 and 86.8037 and 89.4627 and 85.957 and 97.0725 and 88.0274 and 98.1156 and 87.4457 and 99.4211 and 79.8906 and 84.8325 | Concentration-response, normalized signal (replicate wells) ([11]; HCT116, RMC-7977 36.01 nM): 18.5896 and 19.6721 and 20.3034 and 20.9024 and 39.3935 and 41.5603 and 31.7309 and 32.7207 and 34.8483 and 44.0944 and 29.6731 and 29.9889 | Concentration-response, normalized signal (replicate wells) ([11]; HCT116, RMC-7977 324.09 nM): 2.22 and 2.64 and 1.664 and 2.991 and 5.879 and 6.569 and 5.425 and 6.586 and 5.001 and 5.957 and 2.283 and 3.5458 | Concentration-response, normalized signal (replicate wells) ([11]; HCT116, RMC-7977 972.25 nM): 1.618 and 2.167 | Concentration-response, normalized signal (replicate wells) ([11]; cell line heading above the shown rows, RMC-7977 10000.00 nM): 4.998 and 6.7184
